Experimental data published in US20190330224A1, “ACC INHIBITORS AND USES THEREOF” (Gilead Apollo, LLC, priority 2015, published 2019).
In brackets after ≈: the same amount, converted by molar mass.

Assays:
[1] = test system: C. albicans ATCC 90028; experiment: Anti-Fungal Activity Assay (broth microtiter MIC), C. albicans; type: cell-based, Candida albicans; conditions: Candida albicans, ATCC90028, 48 h, 3 replicates; MIC recorded at 48 h; read-out: MIC C. albicans ATCC 90028
Procedure, shortened: (§1)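 Broth microdilution per CLSI M27-A3 in RPMI 1640+MOPS, inoculum from overnight Sabouraud dextrose agar colonies at 35° C; compounds from 1 mg/mL DMSO stocks. MIC read visually against growth control at 48 h, with an added 24 h reading for soraphen.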

[2] = biological target: Human ACC2 (Homo sapiens, UniProt O00763); experiment: In vitro ACC2 inhibition assay (ADP-Glo), human ACC2; type: biochemical; conditions: 5 nM ACC2, 20 μM ATP, 20 μM acetyl-CoA
[3] = test system: C. krusei ATCC 6258; experiment: Anti-Fungal Activity Assay (broth microtiter MIC), C. krusei; type: cell-based, Candida krusei; conditions: Pichia kudriavzevii, ATCC6258, 48 h, 3 replicates; MIC recorded at 48 h; read-out: MIC C. krusei ATCC 6258
Procedure, shortened: as §1

[4] = test system: C. parapsilosis ATCC 22019; experiment: Anti-Fungal Activity Assay (broth microtiter MIC), C. parapsilosis; type: cell-based, Candida parapsilosis; conditions: Lodderomyces parapsilosis, ATCC22019, 48 h, 3 replicates; MIC recorded at 48 h; read-out: MIC C. parapsilosis ATCC 22019
Procedure, shortened: as §1

[5] = biological target: Fungal ACC2 (UniProt Q00955); conditions: read-out: Fungal ACC2 (IC50, in vitro ACC2 inhibition)
Fungal ACC2, sequence (Q00955 whole entry): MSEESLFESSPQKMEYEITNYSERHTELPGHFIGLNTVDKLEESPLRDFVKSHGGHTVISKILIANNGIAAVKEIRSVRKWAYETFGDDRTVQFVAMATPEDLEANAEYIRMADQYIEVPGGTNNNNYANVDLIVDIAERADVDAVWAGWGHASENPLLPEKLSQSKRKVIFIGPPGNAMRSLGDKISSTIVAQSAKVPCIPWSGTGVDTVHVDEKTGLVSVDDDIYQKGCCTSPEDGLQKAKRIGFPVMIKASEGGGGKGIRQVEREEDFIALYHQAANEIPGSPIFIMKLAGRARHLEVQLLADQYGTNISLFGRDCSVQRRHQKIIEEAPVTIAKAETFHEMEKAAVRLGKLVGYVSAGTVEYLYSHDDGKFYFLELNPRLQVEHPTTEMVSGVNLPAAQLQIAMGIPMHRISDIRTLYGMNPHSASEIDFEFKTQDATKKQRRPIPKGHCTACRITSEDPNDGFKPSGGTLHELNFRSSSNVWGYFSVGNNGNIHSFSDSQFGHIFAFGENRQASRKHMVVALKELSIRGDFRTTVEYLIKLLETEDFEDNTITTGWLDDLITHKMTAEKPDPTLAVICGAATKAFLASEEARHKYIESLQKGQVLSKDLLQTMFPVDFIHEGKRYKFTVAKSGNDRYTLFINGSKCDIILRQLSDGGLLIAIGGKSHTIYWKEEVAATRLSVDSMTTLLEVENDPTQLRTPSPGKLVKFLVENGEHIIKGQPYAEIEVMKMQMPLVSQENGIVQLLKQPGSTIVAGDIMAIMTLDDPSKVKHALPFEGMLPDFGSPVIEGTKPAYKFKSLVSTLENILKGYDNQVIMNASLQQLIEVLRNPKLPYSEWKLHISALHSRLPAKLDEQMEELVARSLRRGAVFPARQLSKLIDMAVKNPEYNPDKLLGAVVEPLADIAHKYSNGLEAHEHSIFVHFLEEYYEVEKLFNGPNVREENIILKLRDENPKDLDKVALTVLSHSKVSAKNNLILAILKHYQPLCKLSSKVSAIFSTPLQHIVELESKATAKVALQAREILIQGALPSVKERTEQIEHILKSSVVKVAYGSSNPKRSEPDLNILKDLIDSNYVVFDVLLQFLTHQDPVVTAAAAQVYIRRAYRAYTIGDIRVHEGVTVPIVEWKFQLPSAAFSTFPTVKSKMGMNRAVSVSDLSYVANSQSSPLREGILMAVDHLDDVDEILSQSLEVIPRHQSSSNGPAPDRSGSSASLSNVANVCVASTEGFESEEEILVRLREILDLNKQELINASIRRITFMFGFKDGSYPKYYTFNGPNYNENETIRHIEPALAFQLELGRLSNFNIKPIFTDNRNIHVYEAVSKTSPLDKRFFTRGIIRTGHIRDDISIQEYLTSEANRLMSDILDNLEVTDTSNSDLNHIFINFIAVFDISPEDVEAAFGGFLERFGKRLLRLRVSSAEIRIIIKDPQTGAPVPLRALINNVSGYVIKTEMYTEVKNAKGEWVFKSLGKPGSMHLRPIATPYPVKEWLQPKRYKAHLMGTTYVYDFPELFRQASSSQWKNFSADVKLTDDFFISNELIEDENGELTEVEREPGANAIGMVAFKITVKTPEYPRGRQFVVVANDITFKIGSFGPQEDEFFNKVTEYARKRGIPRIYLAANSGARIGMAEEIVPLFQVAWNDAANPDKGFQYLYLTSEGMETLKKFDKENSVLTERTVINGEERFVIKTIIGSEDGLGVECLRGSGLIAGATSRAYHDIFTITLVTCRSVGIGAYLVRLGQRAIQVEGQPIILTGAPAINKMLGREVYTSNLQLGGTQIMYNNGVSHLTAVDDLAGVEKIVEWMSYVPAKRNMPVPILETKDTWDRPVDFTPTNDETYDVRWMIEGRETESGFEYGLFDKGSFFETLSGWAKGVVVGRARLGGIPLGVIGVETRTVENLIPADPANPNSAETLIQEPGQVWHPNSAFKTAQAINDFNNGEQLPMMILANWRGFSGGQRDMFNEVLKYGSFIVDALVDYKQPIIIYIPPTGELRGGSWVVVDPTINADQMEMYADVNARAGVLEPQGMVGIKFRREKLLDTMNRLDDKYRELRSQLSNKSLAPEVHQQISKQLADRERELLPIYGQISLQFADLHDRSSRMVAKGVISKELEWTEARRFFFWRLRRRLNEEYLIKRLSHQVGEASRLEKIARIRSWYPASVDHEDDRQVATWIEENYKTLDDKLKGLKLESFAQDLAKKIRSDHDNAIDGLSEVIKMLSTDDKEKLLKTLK

Human ACC2, sequence (O00763 whole entry): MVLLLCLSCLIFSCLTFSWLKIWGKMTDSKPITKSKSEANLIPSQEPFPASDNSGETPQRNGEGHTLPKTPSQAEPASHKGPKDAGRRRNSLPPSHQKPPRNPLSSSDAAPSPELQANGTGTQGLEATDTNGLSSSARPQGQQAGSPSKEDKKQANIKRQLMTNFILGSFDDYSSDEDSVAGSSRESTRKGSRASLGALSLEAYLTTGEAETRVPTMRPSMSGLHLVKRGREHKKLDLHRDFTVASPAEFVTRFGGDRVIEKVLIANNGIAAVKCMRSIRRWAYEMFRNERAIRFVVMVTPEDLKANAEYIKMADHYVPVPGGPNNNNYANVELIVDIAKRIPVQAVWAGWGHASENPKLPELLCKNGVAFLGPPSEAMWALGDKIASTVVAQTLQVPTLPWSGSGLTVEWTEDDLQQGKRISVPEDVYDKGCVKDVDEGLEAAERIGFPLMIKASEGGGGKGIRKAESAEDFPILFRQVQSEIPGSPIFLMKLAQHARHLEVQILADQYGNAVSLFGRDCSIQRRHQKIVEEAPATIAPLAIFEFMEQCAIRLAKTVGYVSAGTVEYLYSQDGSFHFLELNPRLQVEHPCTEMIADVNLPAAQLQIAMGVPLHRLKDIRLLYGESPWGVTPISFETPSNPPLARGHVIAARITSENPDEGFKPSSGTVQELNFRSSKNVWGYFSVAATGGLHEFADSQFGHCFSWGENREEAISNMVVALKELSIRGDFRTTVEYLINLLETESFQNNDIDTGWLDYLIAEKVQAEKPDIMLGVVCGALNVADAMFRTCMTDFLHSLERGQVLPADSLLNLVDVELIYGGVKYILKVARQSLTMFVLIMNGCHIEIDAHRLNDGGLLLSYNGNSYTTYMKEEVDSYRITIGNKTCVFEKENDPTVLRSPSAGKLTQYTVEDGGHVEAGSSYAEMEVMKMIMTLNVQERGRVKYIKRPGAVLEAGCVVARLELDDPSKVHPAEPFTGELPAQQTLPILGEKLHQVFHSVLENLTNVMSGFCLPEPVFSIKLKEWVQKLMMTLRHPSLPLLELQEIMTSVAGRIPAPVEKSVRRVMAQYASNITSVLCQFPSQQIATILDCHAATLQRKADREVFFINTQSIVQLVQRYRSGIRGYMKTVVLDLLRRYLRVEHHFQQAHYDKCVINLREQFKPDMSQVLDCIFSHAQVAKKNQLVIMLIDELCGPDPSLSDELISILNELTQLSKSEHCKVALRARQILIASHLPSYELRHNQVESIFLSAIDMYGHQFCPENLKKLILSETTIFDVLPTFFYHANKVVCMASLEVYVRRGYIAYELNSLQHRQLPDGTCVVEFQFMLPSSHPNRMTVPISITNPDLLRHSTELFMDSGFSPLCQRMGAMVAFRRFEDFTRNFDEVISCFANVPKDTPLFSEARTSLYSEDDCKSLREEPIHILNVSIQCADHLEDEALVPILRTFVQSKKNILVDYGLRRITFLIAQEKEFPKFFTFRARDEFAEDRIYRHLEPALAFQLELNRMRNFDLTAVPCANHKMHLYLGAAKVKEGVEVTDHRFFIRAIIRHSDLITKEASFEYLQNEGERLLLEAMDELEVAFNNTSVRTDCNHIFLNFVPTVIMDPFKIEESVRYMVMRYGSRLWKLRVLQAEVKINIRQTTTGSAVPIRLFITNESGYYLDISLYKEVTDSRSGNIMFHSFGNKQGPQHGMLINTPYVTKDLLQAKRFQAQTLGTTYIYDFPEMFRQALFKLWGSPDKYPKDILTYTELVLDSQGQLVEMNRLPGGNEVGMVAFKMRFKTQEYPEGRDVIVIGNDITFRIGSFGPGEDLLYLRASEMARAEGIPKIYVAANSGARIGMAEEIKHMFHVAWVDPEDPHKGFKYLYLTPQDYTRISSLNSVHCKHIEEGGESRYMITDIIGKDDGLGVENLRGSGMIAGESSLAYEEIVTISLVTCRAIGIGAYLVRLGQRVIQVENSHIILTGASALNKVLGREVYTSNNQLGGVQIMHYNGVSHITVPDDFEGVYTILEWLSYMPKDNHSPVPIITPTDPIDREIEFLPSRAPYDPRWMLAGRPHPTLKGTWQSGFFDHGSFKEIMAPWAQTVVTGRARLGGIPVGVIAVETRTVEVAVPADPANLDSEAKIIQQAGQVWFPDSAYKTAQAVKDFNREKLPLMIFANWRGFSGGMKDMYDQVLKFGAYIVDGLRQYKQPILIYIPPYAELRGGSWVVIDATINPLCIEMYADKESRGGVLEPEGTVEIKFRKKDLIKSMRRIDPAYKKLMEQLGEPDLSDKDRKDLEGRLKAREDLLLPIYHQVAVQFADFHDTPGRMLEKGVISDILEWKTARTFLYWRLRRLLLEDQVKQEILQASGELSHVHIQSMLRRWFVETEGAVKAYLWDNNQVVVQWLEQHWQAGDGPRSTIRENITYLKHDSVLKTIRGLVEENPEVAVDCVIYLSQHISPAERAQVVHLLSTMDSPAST

SMILES	MIC [1] [µg/mL]	IC50 [2] [µM]	MIC [3] [µg/mL]	MIC [4] [µg/mL]	IC50 [5] [µM]
COc1ccc(F)cc1[C@H](COc1nc2sc(-n3nccn3)c(C)c2c(=O)n1[C@@H]1CC(=O)N(C)C1)OCCO [Compound I-112, 2-((R)-2-(5-fluoro-2-methoxyphenyl)-2-(2-hydroxy-ethoxy)ethoxy)-5-methyl-3-((R)-1-methyl-5-oxopyrrolidin-3-yl)-6-(2H-1,2,3-triazol-2-yl)thieno[2,3-d]pyrimidin-4(3H)-one]	2.1 to 4 (≈ 3.76 to 7.16 µM)	> 1	2.1 to 4 (≈ 3.76 to 7.16 µM)	2.1 to 4 (≈ 3.76 to 7.16 µM)	0.01 to 0.1
COCCO[C@@H](Cn1c(=O)n([C@@]2(C)CNC(=O)C2)c(=O)c2c(C)c(-n3nccn3)sc21)c1cc(F)ccc1OC [Compound I-114, 1-((R)-2-(5-fluoro-2-methoxyphenyl)-2-(2-methoxyethoxy)ethyl)-5-methyl-3-((R)-3-methyl-5-oxopyrrolidin-3-yl)-6-(2H-1,2,3-triazol-2-yl)thieno[2,3-d]pyrimidine-2,4(1H,3H)-dione]	2.1 to 4 (≈ 3.67 to 6.99 µM)	0.01 to 0.1	2.1 to 4 (≈ 3.67 to 6.99 µM)	2.1 to 4 (≈ 3.67 to 6.99 µM)	0.002 to 0.01
COCCO[C@@H](Cn1c(=O)n([C@]2(C)CNC(=O)C2)c(=O)c2c(C)c(-n3nccn3)sc21)c1cc(F)ccc1OC [Compound I-115, 1-((R)-2-(5-fluoro-2-methoxyphenyl)-2-(2-methoxy-ethoxy)ethyl)-5-methyl-3-((S)-3-methyl-5-oxopyrrolidin-3-yl)-6-(2H-1,2,3-triazol-2-yl)thieno[2,3-d]pyrimidine-24(1H,3H)-dione]	2.1 to 4 (≈ 3.67 to 6.99 µM)	0.01 to 0.1	2.1 to 4 (≈ 3.67 to 6.99 µM)	2.1 to 4 (≈ 3.67 to 6.99 µM)	0.0007 to 0.002
COc1ccc(F)cc1[C@H](Cn1c(=O)n([C@H]2CCCN(C)C2=O)c(=O)c2c(C)c(-n3nccn3)sc21)OCCC#N [Compound I-116, 3-((R)-1-(5-fluoro-2-methoxyphenyl)-2-(5-methyl-3-((S)-1-methyl-2-oxopiperidin-3-yl)-2,4-dioxo-6-(2H-1,2,3-triazol-2-yl)-3,4-dihydrothieno[2,3-d]pyrimidin-1(2H)-yl)ethoxy)propanenitrile]	2.1 to 4 (≈ 3.61 to 6.88 µM)	0.01 to 0.1	2.1 to 4 (≈ 3.61 to 6.88 µM)	2.1 to 4 (≈ 3.61 to 6.88 µM)	0.0007 to 0.002
COc1ccc(F)cc1[C@H](Cn1c(=O)n([C@@H]2CCCN(C)C2=O)c(=O)c2c(C)c(-n3nccn3)sc21)OCCC#N [Compound I-117, 3-((R)-1-(5-fluoro-2-methoxyphenyl)-2-(5-methyl-3-((R)-1-methyl-2-oxopiperidin-3-yl)-2,4-dioxo-6-(2H-1,2,3-triazol-2-yl)-3,4-dihydrothieno[2,3-d]pyrimidin-1(2H)-yl)ethoxy)propanenitrile]	2.1 to 4 (≈ 3.61 to 6.88 µM)	0.002 to 0.01	2.1 to 4 (≈ 3.61 to 6.88 µM)	2.1 to 4 (≈ 3.61 to 6.88 µM)	0.0007 to 0.002
COc1ccc(F)cc1[C@H](Cn1c(=O)n([C@@]2(C)CNC(=O)C2)c(=O)c2c(C)c(-n3nccn3)sc21)OCCO [Compound I-118, 1-((R)-2-(5-fluoro-2-methoxyphenyl)-2-(2-hydroxy-ethoxy)ethyl)-5-methyl-3-((R)-3-methyl-5-oxopyrrolidin-3-yl)-6-(2H-1,2,3-triazol-2-yl)thieno[2,3-d]pyrimidine-2,4(1H,3H)-dione]	2.1 to 4 (≈ 3.76 to 7.16 µM)	0.01 to 0.1	2.1 to 4 (≈ 3.76 to 7.16 µM)	2.1 to 4 (≈ 3.76 to 7.16 µM)	0.002 to 0.01
COc1ccc(F)cc1[C@H](Cn1c(=O)n([C@]2(C)CNC(=O)C2)c(=O)c2c(C)c(-n3nccn3)sc21)OCCO [Compound I-119, 1-((R)-2-(5-fluoro-2-methoxyphenyl)-2-(2-hydroxyethoxy)ethyl)-5-methyl-3-((S)-3-methyl-5-oxopyrrolidin-3-yl)-6-(2H-1,2,3-triazol-2-yl)thieno[2,3-d]pyrimidine-2,4(1H,3H)-dione]	2.1 to 4 (≈ 3.76 to 7.16 µM)	0.01 to 0.1	2.1 to 4 (≈ 3.76 to 7.16 µM)	2.1 to 4 (≈ 3.76 to 7.16 µM)	0.002 to 0.01
COCCO[C@@H](Cn1c(=O)n([C@]2(C)CC(=O)N(C)C2)c(=O)c2c(C)c(-n3nccn3)sc21)c1cc(F)ccc1OC [Compound I-120, 3-((R)-1,3-dimethyl-5-oxopyrrolidin-3-yl)-1-((R)-2-(5-fluoro-2-methoxyphenyl)-2-(2-methoxyethoxy)ethyl)-5-methyl-6-(2H-1,2,3-triazol-2-yl)thieno[2,3-d]pyrimidine-2,4(1H,3H)-dione]	2.1 to 4 (≈ 3.58 to 6.82 µM)	0.01 to 0.1	2.1 to 4 (≈ 3.58 to 6.82 µM)	2.1 to 4 (≈ 3.58 to 6.82 µM)	0.0007 to 0.002
COc1ccc(F)cc1[C@H](Cn1c(=O)n([C@]2(C)CC(=O)N(C)C2)c(=O)c2c(C)c(-n3nccn3)sc21)OCCO [Compound I-121, 3-((R)-1,3-dimethyl-5-oxopyrrolidin-3-yl)-1-((R)-2-(5-fluoro-2-methoxyphenyl)-2-(2-hydroxyethoxy)ethyl)-5-methyl-6-(2H-1,2,3-triazol-2-yl)thieno[2,3-d]pyrimidine-2,4(1H,3H)-dione]	2.1 to 4 (≈ 3.67 to 6.99 µM)	0.01 to 0.1	2.1 to 4 (≈ 3.67 to 6.99 µM)	2.1 to 4 (≈ 3.67 to 6.99 µM)	0.0007 to 0.002
COCCO[C@@H](Cn1c(=O)n([C@@]2(C)CC(=O)N(C)C2)c(=O)c2c(C)c(-n3nccn3)sc21)c1cc(F)ccc1OC [Compound I-122, 3-((S)-1,3-dimethyl-5-oxopyrrolidin-3-yl)-1-((R)-2-(5-fluoro-2-methoxyphenyl)-2-(2-methoxyethoxy)ethyl)-5-methyl-6-(2H-1,2,3-triazol-2-yl)thieno[2,3-d]pyrimidine-2.4(1H, 3H)-dione]	2.1 to 4 (≈ 3.58 to 6.82 µM)	0.01 to 0.1	2.1 to 4 (≈ 3.58 to 6.82 µM)	2.1 to 4 (≈ 3.58 to 6.82 µM)	0.002 to 0.01
COc1ccc(F)cc1[C@H](Cn1c(=O)n([C@@]2(C)CC(=O)N(C)C2)c(=O)c2c(C)c(-n3nccn3)sc21)OCCO [Compound I-123, 3-((S)-1,3-dimethyl-5-oxopyrrolidin-3-yl)-1-((R)-2-(5-fluoro-2-methoxyphenyl)-2-(2-hydroxyethoxy)ethyl)-5-methyl-6-(2H-1,2,3-triazol-2-yl)thieno[2,3-d]pyrimidine-2,4(1H,3H)-dione]	2.1 to 4 (≈ 3.67 to 6.99 µM)	0.01 to 0.1	2.1 to 4 (≈ 3.67 to 6.99 µM)	2.1 to 4 (≈ 3.67 to 6.99 µM)	0.0007 to 0.002
COCCO[C@@H](Cn1c(=O)n([C@]2(C)CCCNC2=O)c(=O)c2c(C)c(-n3nccn3)sc21)c1cc(F)ccc1OC [Compound I-124, 1-((R)-2-(5-fluoro-2-methoxyphenyl)-2-(2-methoxy-ethoxy)ethyl)-5-methyl-3-((R)-3-methyl-2-oxopiperidin-3-yl)-6-(2H-1,2,3-triazol-2-yl)thieno[2,3-d]pyrimidine-2,4(1H,3H)-dione]	2.1 to 4 (≈ 3.58 to 6.82 µM)	0.01 to 0.1	2.1 to 4 (≈ 3.58 to 6.82 µM)	2.1 to 4 (≈ 3.58 to 6.82 µM)	0.002 to 0.01
COCCO[C@@H](Cn1c(=O)n([C@@]2(C)CCCNC2=O)c(=O)c2c(C)c(-n3nccn3)sc21)c1cc(F)ccc1OC [Compound I-125, 1-((R)-2-(5-fluoro-2-methoxyphenyl)-2-(2-methoxy-ethoxy)ethyl)-5-methyl-3-((S)-3-methyl-2-oxopiperidin-3-yl)-6-(2H-1,2,3-triazol-2-yl)thieno[2,3-d]pyrimidine-2,4(1H,3H)-dione]	2.1 to 4 (≈ 3.58 to 6.82 µM)	0.01 to 0.1	2.1 to 4 (≈ 3.58 to 6.82 µM)	2.1 to 4 (≈ 3.58 to 6.82 µM)	0.002 to 0.01
COc1ccc(F)cc1[C@H](Cn1c(=O)n([C@]2(C)CCCNC2=O)c(=O)c2c(C)c(-n3nccn3)sc21)OCCO [Compound I-126, 1-((R)-2-(5-fluoro-2-methoxyphenyl)-2-(2-hydroxyethoxy)ethyl)-5-methyl-3-((R)-3-methyl-2-oxopiperidin-3-yl)-6-(2H, 1,2,3-triazol-2-yl)thieno[2,3-d]pyrimidine-2,4(1H,3H)-dione]	2.1 to 4 (≈ 3.67 to 6.99 µM)	0.002 to 0.01	0.25 to 1 (≈ 0.437 to 1.75 µM)	2.1 to 4 (≈ 3.67 to 6.99 µM)	0.0007 to 0.002
COc1ccc(F)cc1[C@H](Cn1c(=O)n([C@@]2(C)CCCNC2=O)c(=O)c2c(C)c(-n3nccn3)sc21)OCCO [Compound I-127, 1-((R)-2-(5-fluoro-2-methoxyphenyl)-2-(2-hydroxyethoxy)ethyl)-5-methyl-3-((S)-3-methyl-2-oxopiperidin-3-yl)-6-(2H-1,2,3-triazol-2-yl)thieno[2,3-d]pyrimidine-2,4(1H,3H)-dione]	2.1 to 4 (≈ 3.67 to 6.99 µM)	0.01 to 0.1	2.1 to 4 (≈ 3.67 to 6.99 µM)	2.1 to 4 (≈ 3.67 to 6.99 µM)	0.0007 to 0.002
COCCO[C@@H](Cn1c(=O)n([C@]2(C)CCCN(C)C2=O)c(=O)c2c(C)c(-n3nccn3)sc21)c1cc(F)ccc1OC [Compound I-128, 3-((R)-1,3-dimethyl-2-oxopiperidin-3-yl)-1-((R)-2-(5-fluoro-2-methoxyphenyl)-2-(2-methoxyethoxy)ethyl)-5-methyl-6-(2H-1,2,3-triazol-2-yl)thieno[2,3-d]pyrimidine-2,4(1H,3H)-dione]	2.1 to 4 (≈ 3.5 to 6.66 µM)	0.01 to 0.1	2.1 to 4 (≈ 3.5 to 6.66 µM)	2.1 to 4 (≈ 3.5 to 6.66 µM)	0.002 to 0.01
COc1ccc(F)cc1[C@H](Cn1c(=O)n([C@]2(C)CCCN(C)C2=O)c(=O)c2c(C)c(-n3nccn3)sc21)OCCO [Compound I-129, 3-((R)-1,3-dimethyl-2-oxopiperidin-3-yl)-1-((R)-2-(5-fluoro-2-methoxyphenyl)-2-(2-hydroxyethoxy)ethyl)-5-methyl-6-(2H-1,2,3-triazol-2-yl)thieno[2,3-d]pyrimidine-2,4(1H,3H)-dione]	2.1 to 4 (≈ 3.58 to 6.82 µM)	0.01 to 0.1	2.1 to 4 (≈ 3.58 to 6.82 µM)	2.1 to 4 (≈ 3.58 to 6.82 µM)	0.0007 to 0.002
